# Values of other authors in US20210069098A1, “RIBAVIRIN […] COMPOSITION FOR TREATING VIRAL DISEASES” (MT RESEARCH, LLC, priority 2009, published 2021).
# Where two headings read alike, the source gives them in different places.
# Legend:
# [1] = system: Influenza
# [2] = nebulized neat perflubron
# [3] = PLV
molecule,measurement,setting,value
"CC(=O)N[C@@H](CS)C(=O)O [N-acetylcysteine (NAC), N-acetylcysteine]",survival,[1]; in vivo,improve survival
FC(F)(F)C(F)(F)C(F)(F)C(F)(F)C(F)(F)C(F)(F)C(F)(F)C(F)(F)Br [perflubron],gas exchange,[2],efficacy for gas exchange
same,reduction in ventilator days or mortality,[3]; low dose 10 mL/kg or high dose 20 mL/kg,failed to demonstrate a reduction in ventilator days or mortality
same,complications,"[3]; low dose or high dose, hypotension, hypoxemia and pneumothorax",more complications
superoxide dismutase [superoxide dismutase (SOD)],survival,[1]; […],improve survival
